Source: patent US5427766A, “Radiolabeled steroids for use in radiochemical-guided surgery” (priority 1993, dated 1995)

What was measured:
Set-up in all cases: species or system athymic female NCR-Nu Mice
[1] = test system: MCF-7(ER+) breast tumor xenografts; test: In vivo localization (biodistribution) in athymic female nude mice bearing subcutaneous MCF-7 tumor xenografts
Description: (§1) In vivo localization of 11β-ethyl-17α-(Z)-[^125 I](iodovinyl)estra-3,17β-diol (5) and a control compound 16α-[^125 I]iodovinyl-3,17β-estradiol (commercially available from DuPont New England Nuclear, MA) was determined in athymic female NCR-Nu Mice (purchased from Simonsen Laboratories, Gilroy, Calif.) bearing subcutaneous MCF-7(ER+) breast tumor xenografts. Prior to injection of the compounds, the mice were each implanted with fragments of MCF-7 breast tumor (approximately 2 cubic millimeters) in the subcutis of the left flank. At approximately the same time, a 1.7 mg estradiol pellet (Innovative Research of America, Toledo, Ohio) was implanted in the scapular region. The tumors were allowed to grow until they reached between 50 and 200 mg by visual inspection (approximately four to five weeks) prior to injection of the test compounds. One day prior to injection of the test compounds, the estradiol pellet was removed.
(§2) The mice were each injected via tail vein with between 3 (1.1×10^5 Bq) and 6 μCi ([…]) ^125 I in approximately 50 μL of phosphate buffered saline. The mice were sacrificed at various time intervals. After exsanguination, the selected organ/tissue were excised, weighed and radioactivity measured in a gamma counter. The counts per minute (cpm) of 125I in each tissue was determined and expressed as cpm per gram of tissue per injected dose multiplied by 100 (percent injected dose/gram).

[2] = test system: MDA-MB-231 (ER-) breast tumor xenografts; test: In vivo biolocalization with gamma detecting probe, tumor/background ratio, MDA-MB-231 (ER-) tumor; details: mouse, in vivo
Description: (§3) In vivo biolocalization of 11β-ethyl-17α-(Z)-[^125 I](iodovinyl)estra-3,17β-diol (5) and a control compound 16α-[^125 I](iodovinyl)-3,17β-estradiol was determined in athymic female NCR-Nu Mice bearing subcutaneous MCF-7(ER+) breast tumor xenografts and MDA-MB-231 (ER-) breast tumor xenografts. The mice were at least 5 weeks old prior to injection into the right-hand flank with […] of MCF-7 breast carcinoma cells ([…]). One day prior to this procedure, the mice were implanted subcutaneously with a 1.7 mg estradiol pellet in the scapular region. Four to six weeks post-injection of the MCF-7 cells the estradiol pellet was removed and the mice inoculated in the left hind flank with 75 μL NDA-MB-231 breast tumor cells ([…]). Seven to ten days prior to injection of the test compounds, an estradiol pellet was again implanted in the scapular region. One to two days prior to injection of the test compounds, the estradiol pellet was removed, and 5 mice arbitrarily assigned to each test group.
(§4) The mice were each injected via tail vein with between 3 ([…]) and […] ([…]) 125 iodine in approximately […] of phosphate-buffered saline. At various time intervals after injection of the test compounds, each group of mice was anesthetized with methoxyflurane in order to measure the radioactivity over the ER+ and ER- tumors and the front leg for use as a background and the thoraxic area which served as a blood pool control using a gamma detecting probe (RIGS ^TM Model 1001 control unit, Neoprobe Corporation, Columbus, Ohio). Three 20 to 60 second counts were recorded at each area measured at each time point.
(§5) ^c Tu/Bkg = Mean(1-5) of (mean tumor countsn - mean foreleg
(§6) background countsn)/mean foreleg background

[3] = test system: MCF-7 tumors located intraperitoneally; test: In vivo localization (biodistribution) in athymic female nude mice bearing intraperitoneal MCF-7 tumors; details: for Percent Injected Dose/Gram, muscle: mouse, in vivo, ip
Description: as §1, §2
The procedure of Example 3 was followed except each mouse was inoculated intraperitoneally with MCF-7 breast carcinoma cell line (7.5×10^6 cell/50 μL) rather than implanted subcutaneously with MCF-7 breast tumor. One day prior to this procedure, a 1.7 mg estradiol pellet was implanted subcutaneously in the scapular region. The tumor cells were allowed to form solid tumor nodules for 4 to 6 weeks prior to injection of the test compounds.

[4] = test system: MCF-7(ER+) breast tumor xenografts; test: In vivo biolocalization with gamma detecting probe, tumor/background ratio, MCF-7 (ER+) tumor; details: mouse, in vivo
Description: as §3, §4, §5, §6

With `CC[C@H]1C[C@@]2(C)[C@@H](CC[C@@]2(O)/C=C\[125I])[C@@H]2CCc3cc(O)ccc3[C@@H]12` [Compound 5, 11β-ethyl-17α-(Z)-[^125 I](iodovinyl)estra-3,17β-diol] the “radioactivity in the uteri and tumors” value ([1]; 48 hours post-injection, uteri and tumors, subcutaneous MCF-7) was “still contain a significant amount of radioactivity”, the “Percent Injected Dose/Gram, fat” value ([1]; Fat, 48 hours, tail vein, subcutaneous MCF-7, mean, n = 5) was 0.00 Percent Injected Dose/Gram and the “Percent Injected Dose/Gram, muscle” value ([1]; 24 hours, tail vein, subcutaneous MCF-7, mean, n = 5) was 0.00 Percent Injected Dose/Gram. For the same molecule, the “Percent Injected Dose/Gram, muscle” value ([1]; 48 hours, tail vein, subcutaneous MCF-7, mean, n = 5) was 0.00 Percent Injected Dose/Gram, the “binding affinity in vivo with retention of the targeted-site” value ([1]; subcutaneous MCF-7, conclusion in words) was “high binding affinity in vivo with retention of the targeted-site” and the “Tumor/Background Ratio (Tu/Bkg)” value [2] was 2.44 ± 1.83. The “Tumor/Background Ratio (Tu/Bkg)” value ([2]; 120 min) was 4.34 ± 1.37, the “Tumor/Background Ratio (Tu/Bkg)” value ([2]; 360 min) was 4.44 ± 2.62 and the “Tumor/Background Ratio (Tu/Bkg)” value ([2]; 1440 min) was 0.87 ± 0.54. The “Tumor/Background Ratio (Tu/Bkg)” value ([2]; 2880 min) was 0.03 ± 0.34, the “radioactivity in the uteri and tumors” value ([3]; 48 hours post-injection, uteri and tumors, intraperitoneal MCF-7) was “still contain a significant amount of radioactivity” and the “Percent Injected Dose/Gram, fat” value ([3]; Fat, 48 hours, tail vein, intraperitoneal MCF-7, mean, n = 5) was 0.00 Percent Injected Dose/Gram. The “binding affinity in vivo with retention of the targeted-site” value ([3]; intraperitoneal MCF-7, conclusion in words) was “high binding affinity in vivo with retention of the targeted-site”, the “Percent Injected Dose/Gram, muscle” value ([3]; 1440 min) was 0.00 Percent Injected Dose/Gram and the “Percent Injected Dose/Gram, muscle” value ([3]; 2880 min) was 0.00 Percent Injected Dose/Gram. The “Tumor/Background Ratio (Tu/Bkg)” value [4] was 4.70 ± 1.85, the “tumor to background ratios (in words)” value [4] was “good tumor to background ratios” and the “tumor to background ratios / localization at the tumor site (in words)” value [4] was “maintained a high tumor to background ratios”. For the same molecule, the “Tumor/Background Ratio (Tu/Bkg)” value ([4]; 120 min) was 4.74 ± 2.04, the “Tumor/Background Ratio (Tu/Bkg)” value ([4]; 360 min) was 7.32 ± 0.60 and the “Tumor/Background Ratio (Tu/Bkg)” value ([4]; 1440 min) was 3.53 ± 1.30. The “Tumor/Background Ratio (Tu/Bkg)” value ([4]; 2880 min) was 1.79 ± 1.23.
